Structures are written as SMILES. Several values for one entry are separate records, joined by “and”; a condition that tells them apart may be missing. Identical values can stand only once.

Data on 45 compounds can be found in patent USRE49735E1 (BRISTOL-MYERS SQUIBB COMPANY, priority 2010, dated 2023).

human mGluR5A, sequence (P41594 21-1180 isoform P41594-2): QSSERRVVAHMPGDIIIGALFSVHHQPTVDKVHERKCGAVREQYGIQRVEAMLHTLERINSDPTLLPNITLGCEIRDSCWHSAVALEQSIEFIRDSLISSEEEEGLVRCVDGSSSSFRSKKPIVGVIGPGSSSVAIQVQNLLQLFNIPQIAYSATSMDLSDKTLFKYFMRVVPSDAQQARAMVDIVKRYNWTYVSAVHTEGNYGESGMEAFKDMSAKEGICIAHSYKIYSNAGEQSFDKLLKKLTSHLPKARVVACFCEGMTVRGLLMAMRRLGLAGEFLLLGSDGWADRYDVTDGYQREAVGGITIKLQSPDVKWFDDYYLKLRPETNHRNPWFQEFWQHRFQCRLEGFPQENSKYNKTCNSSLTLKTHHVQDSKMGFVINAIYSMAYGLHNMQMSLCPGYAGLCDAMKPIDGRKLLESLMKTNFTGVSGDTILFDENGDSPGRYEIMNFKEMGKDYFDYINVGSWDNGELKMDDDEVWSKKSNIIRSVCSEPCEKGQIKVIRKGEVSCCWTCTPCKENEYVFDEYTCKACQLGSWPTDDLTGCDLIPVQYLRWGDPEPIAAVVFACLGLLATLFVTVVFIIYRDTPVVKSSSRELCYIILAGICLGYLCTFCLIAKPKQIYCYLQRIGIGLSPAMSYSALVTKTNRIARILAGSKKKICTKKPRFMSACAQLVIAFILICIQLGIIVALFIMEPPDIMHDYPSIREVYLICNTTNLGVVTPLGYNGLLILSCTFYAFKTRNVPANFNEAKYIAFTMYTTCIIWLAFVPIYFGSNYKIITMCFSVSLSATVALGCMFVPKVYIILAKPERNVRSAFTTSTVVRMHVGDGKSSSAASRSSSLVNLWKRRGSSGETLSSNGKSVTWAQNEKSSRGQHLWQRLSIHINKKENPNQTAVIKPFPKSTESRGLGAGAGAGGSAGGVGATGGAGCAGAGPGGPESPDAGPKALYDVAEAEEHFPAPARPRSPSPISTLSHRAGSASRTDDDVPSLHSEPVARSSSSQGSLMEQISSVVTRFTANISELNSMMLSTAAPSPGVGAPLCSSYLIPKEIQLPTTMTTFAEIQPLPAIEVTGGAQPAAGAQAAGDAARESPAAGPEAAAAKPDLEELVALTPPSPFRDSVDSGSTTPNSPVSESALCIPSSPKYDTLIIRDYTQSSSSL

The experiment concerns the target human mGluR5A (Homo sapiens, UniProt P41594). The experiment can be described thus: mGluR5 FLIPR Assay. The format is cell-based. The conditions noted are these: positive modulator activity; HEK293 (ZF) cells with human mGluR5A and rat GLAST; Ca++ response to ~EC10 glutamate. As to the method: HEK293 (ZF) cells stably transfected with human mGluR5A (pIRES neo) and the rat glutamate-aspartate transporter (GLAST; pIRES puro) are grown in a monolayer culture at 37° C. in 5% CO2 and fed with Minimum Essential Medium (MEM) supplemented with 10% dialysed fetal bovine serum. 24 hours prior to assay, cells are enzymatically dissociated from the culture flask (Trypsin, 0.25%), spun down (1000 rpm, 3 min), resuspended, and plated on Greiner black clear bottomed PDL-coated 384-well plates at a density of 30 thousand cells/well. […] Plates are incubated in dye at 37° C. in 5% CO2 for 60 minutes prior to delivery of test compounds in assay buffer. Test compounds are incubated with cells in the presence of dye for 10 minutes prior to being read on the FLIPR platform (Molecular Devices). A Ca^++ signal is induced in the assay plates via the delivery of an ˜EC10 concentration of the endogenous agonist 1-glutamate; images are acquired at 1 Hz for 100 seconds post-delivery of agonist stimulus. Positive modulator activity (i.e. the ability of test compounds to increase the Ca^++ response to a sub-maximal concentration of agonist) is normalized to a saturating concentration of a known mGluR5 PAM run in each assay plate. An EC50 concentration of test compounds is derived from 4-parameter logistic curve fits of transformed fluoresence data via proprietary software suite.
`O=C1N[C@@H](c2cc(C#Cc3ccccc3F)ccn2)[C@H](c2ccc(F)cc2)O1` (single isomer, unassigned) [Example 354]: the EC50 – broadly, the concentration at which the effect is half-maximal – was 100 to 1000 nM and 392 nM. As for `O=C1N[C@H](c2cc(C#Cc3cccc(F)c3)ccn2)[C@@H](c2ccc(F)cc2)O1` (single isomer, unassigned) [Example 355], the figure is below 100 nM; as for `O=C1N[C@@H](c2cc(C#Cc3cccc(F)c3)ccn2)[C@H](c2ccc(F)cc2)O1` (single isomer, unassigned) [Example 356], 100 to 1000 nM. `O=C1N[C@H](c2cc(C#Cc3ccc(F)cc3)ccn2)[C@@H](c2ccc(F)cc2)O1` (single isomer, unassigned) [Example 357] displayed an EC50 below 100 nM. `O=C1N[C@@H](c2cc(C#Cc3ccc(F)cc3)ccn2)[C@H](c2ccc(F)cc2)O1` (single isomer, unassigned) [Example 358] registered an EC50 above 1000 nM. For the compound `O=C1N[C@@H](c2cncc(C#Cc3ccccc3)c2)[C@H](c2ccc(Cl)cc2)O1` (single isomer, unassigned) [Example 359], the EC50 was in the range of 100 to 1000 nM. As to `O=C1N[C@H](c2cncc(C#Cc3ccccc3)c2)[C@@H](c2ccc(Cl)cc2)O1` (single isomer, unassigned) [Example 360], the EC50 was < 100 nM and 2 nM. The compound `O=C1N[C@@H](c2cncc(C#Cc3ccccc3)c2)[C@H](c2cccc(Cl)c2)O1` (single isomer, unassigned) [Example 361] registered an EC50 above 1000 nM. Then `O=C1N[C@H](c2cncc(C#Cc3ccccc3)c2)[C@@H](c2cccc(Cl)c2)O1` (single isomer, unassigned) [Example 362], with below 100 nM; and `O=C1N[C@@H](c2cncc(C#Cc3ccccc3)c2)[C@H](c2ccccc2Cl)O1` (single isomer, unassigned) [Example 363], with below 100 nM. `O=C1N[C@H](c2cncc(C#Cc3ccccc3)c2)[C@@H](c2ccccc2Cl)O1` (single isomer, unassigned) [Example 364]: the EC50 was above 1000 nM. On to `O=C1N[C@@H](c2cccc(C#Cc3ccccc3)n2)[C@H](c2cccnc2)O1` (single isomer, unassigned) [Example 366], for which the EC50 was above 1000 nM. With `O=C1N[C@H](c2cccc(C#Cc3ccccc3)n2)[C@@H](c2cccnc2)O1` (single isomer, unassigned) [Example 367], the EC50 is above 1000 nM. As to `O=C1N[C@H](c2cccc(C#Cc3cnccn3)n2)[C@@H](c2ccc(F)cc2)O1` (single isomer, unassigned) [Example 368], the concentration for a half-maximal effect (EC50) lay in the range of 100 to 1000 nM. Consider `O=C1N[C@@H](c2cccc(C#Cc3cnccn3)n2)[C@H](c2ccc(F)cc2)O1` (single isomer, unassigned) [Example 369], for which the EC50 is above 1000 nM. `O=C1N[C@H](c2cccc(C#Cc3ncccc3F)n2)[C@@H](c2ccc(F)cc2)O1` (single isomer, unassigned) [Example 370]: the concentration giving a half-maximal response (EC50) is < 100 nM and 31.8 nM. On to `O=C1NC(c2cccc(C#Cc3ncccc3F)n2)C(c2ccc(F)cc2)O1` (single isomer, unassigned) [Example 371], for which the EC50 is above 1000 nM. As for `O=C1N[C@H](c2cccc(C#Cc3ccnc(F)c3)n2)[C@@H](c2ccc(F)cc2)O1` (single isomer, unassigned) [Example 372], the EC50 is below 100 nM. In turn, `O=C1N[C@@H](c2cccc(C#Cc3ccnc(F)c3)n2)[C@H](c2ccc(F)cc2)O1` (single isomer, unassigned) [Example 373] yielded an EC50 above 1000 nM.

On to `O=C1N[C@@H](c2cc(C#Cc3ccccc3)cnc2F)[C@H](c2ccccc2F)O1` (single isomer, unassigned) [Example 374], for which the concentration giving a half-maximal response (EC50) was above 1000 nM. As for `O=C1N[C@H](c2cc(C#Cc3ccccc3)cnc2F)[C@@H](c2ccccc2F)O1` (single isomer, unassigned) [Example 375], the EC50 is below 100 nM. `C[C@@]1(c2cccc(C#Cc3ccccc3)n2)NC(=O)O[C@@H]1c1ccccc1F` (single isomer, unassigned) [Example 376] had a 50% effective concentration (EC50) of 100 to 1000 nM. `C[C@]1(c2cccc(C#Cc3ccccc3)n2)NC(=O)O[C@H]1c1ccccc1F` (single isomer, unassigned) [Example 377] came in with an EC50 above 1000 nM. As to `C[C@]1(c2cccc(C#Cc3ccccc3)n2)NC(=O)O[C@@H]1c1ccccc1F` (single isomer, unassigned) [Example 378], the EC50 was below 100 nM. As for `C[C@@]1(c2cccc(C#Cc3ccccc3)n2)NC(=O)O[C@H]1c1ccccc1F` (single isomer, unassigned) [Example 379], the figure is above 1000 nM. In the case of `C[C@@]1(c2cncc(C#Cc3ccccc3)c2)NC(=O)O[C@H]1c1cc(F)ccc1F` (single isomer, unassigned) [Example 406], the EC50 fell in the range of 100 to 1000 nM. For `C[C@]1(c2cncc(C#Cc3ccccc3)c2)NC(=O)O[C@@H]1c1cc(F)ccc1F` (single isomer, unassigned) [Example 407], the EC50 was below 100 nM. Then `COc1cccc([C@@H]2OC(=O)N[C@H]2c2cccc(C#Cc3ccc(C(F)(F)F)cc3)c2)c1` (stereo in doubt) [Example 120, (4S,5S)-5-(3-methoxyphenyl)-4-(3-((4-(trifluoromethyl)phenyl)ethynyl)phenyl)oxazolidin-2-one], with above 1000 nM; and `COc1cccc([C@@H]2OC(=O)N[C@H]2c2cccc(C#Cc3ccccc3F)c2)c1` (stereo in doubt) [Example 122, (4S,5S)-4-(3-((2-fluorophenyl)ethynyl)phenyl)-5-(3-methoxyphenyl)oxazolidin-2-one], with above 1000 nM. In the case of `COc1cccc([C@H]2OC(=O)N[C@@H]2c2cccc(C#Cc3ccccc3)c2)c1` [Example 1, (+)-(4R,5R)-5-(3-Methoxyphenyl)-4-(3-(phenylethynyl)phenyl)oxazolidin-2-one], the EC50 was < 100 nM and 39 nM. On to `COc1cccc([C@@H]2OC(=O)N[C@H]2c2cccc(C#Cc3ccccc3)c2)c1` [Example 2, (4S,5S)-5-(3-Methoxyphenyl)-4-(3-(phenylethynyl)phenyl)oxazolidin-2-one], for which the EC50 is above 30000 nM. For the compound `COc1cccc([C@H]2OC(=O)N[C@@H]2c2cccc(C#Cc3ccc(F)cc3)n2)c1` [Example 7, (4R,5R)-4-(6-((4-Fluorophenyl)ethynyl)pyridin-2-yl)-5-(3-methoxyphenyl)oxazolidin-2-one], the EC50 is above 1000 nM. As for `COc1cccc([C@H]2OC(=O)N[C@@H]2c2cccc(C#Cc3cccc(F)c3)n2)c1` [Example 8, (4R,5R)-4-(6-((3-Fluorophenyl)ethynyl)pyridin-2-yl)-5-(3-methoxyphenyl)oxazolidin-2-one], the figure is above 1000 nM. For the compound `COc1cccc([C@H]2OC(=O)N[C@@H]2c2cccc(C#Cc3ccccc3F)n2)c1` [Example 9, (4R,5R)-4-(6-((2-Fluorophenyl)ethynyl)pyridin-2-yl)-5-(3-methoxyphenyl)oxazolidin-2-one], the EC50 is above 1000 nM. Compound `O=C1N[C@H](c2cccc(C#Cc3ccccc3F)n2)[C@@H](c2ccccc2)O1` [Example 12] had an EC50 above 1000 nM.

As for `O=C1N[C@H](c2ccnc(C#Cc3ccccc3)c2)[C@@H](c2ccccc2)O1` [Example 20, (4R,5R)-5-Phenyl-4-(2-(phenylethynyl)pyridin-4-yl)oxazolidin-2-one], the EC50 was below 100 nM. In turn, `O=C1N[C@H](c2ccnc(C#Cc3ccccn3)c2)[C@@H](c2ccccc2)O1` [Example 22, (4R,5R)-5-Phenyl-4-(2-(pyridin-2-ylethynyl)pyridin-4-yl)oxazolidin-2-one] yielded an EC50 above 1000 nM. The compound `O=C1N[C@H](c2ccnc(C#Cc3cccnc3)c2)[C@@H](c2ccccc2)O1` [Example 23, (4R,5R)-5-Phenyl-4-(2-(pyridin-3-ylethynyl)pyridin-4-yl)oxazolidin-2-one] came in with an EC50 below 100 nM. As for `O=C1N[C@H](c2cncc(C#Cc3ccccn3)c2)[C@@H](c2cccc(F)c2)O1` [Example 34, (4R,5R)-5-(3-Fluorophenyl)-4-(5-(pyridin-2-ylethynyl)pyridin-3-yl)oxazolidin-2-one], the figure is above 1000 nM; as for `O=C1N[C@H](c2cncc(C#Cc3cccnc3)c2)[C@@H](c2cccc(F)c2)O1` [Example 35, (4R,5R)-5-(3-Fluorophenyl)-4-(5-(pyridin-3-ylethynyl)pyridin-3-yl)oxazolidin-2-one], < 100 nM and 6.3 nM; as for `COc1cccc([C@H]2OC(=O)N[C@@H]2c2cccc(C#Cc3cccnc3)c2)c1` [Example 46], below 100 nM. `COc1cccc([C@H]2OC(=O)N[C@@H]2c2cccc(C#Cc3ccccn3)c2)c1` [Example 47, (4R,5R)-5-(3-Methoxyphenyl)-4-(3-(pyridin-2-ylethynyl)phenyl)oxazolidin-2-one]: the EC50 was < 100 nM and 7.4 nM.

Compound `COc1cccc([C@H]2OC(=O)N[C@@H]2c2cccc(C#Cc3cccc(C)n3)c2)c1` [Example 48, (4R,5R)-5-(3-Methoxyphenyl)-4-(3-((6-methylpyridin-2-yl)ethnyl)phenyl)oxazolidin-2-one] registered an EC50 above 1000 nM. As for `COc1cncc(C#Cc2cccc([C@H]3NC(=O)O[C@@H]3c3cccc(OC)c3)c2)c1` [Example 49], the half-maximal effective concentration (EC50) is above 1000 nM. Take `COc1cccc([C@H]2OC(=O)N[C@@H]2c2cccc(C#Cc3cncc(Cl)c3)c2)c1` [Example 50, (4R,5R)-4-(3-((5-Chloropyridin-3-yl)ethnyl)phenyl)-5-(3-methoxyphenyl)oxazolidin-2-one]: the EC50 was 100 to 1000 nM and 353 nM.
